Laboratory results published in patent US20170334899A1, “AMINO-SUBSTITUTED ISOTHIAZOLES” (Bayer Pharma Aktiengesellschaft, priority 2014, published 2017).
Several values for one entry are separate records, joined by “and”; a condition that tells them apart may be missing. Equal entries are not always repeated.

Tests used:
CDK2/CycE = target: T1, CDK2/CycE (Homo sapiens, UniProt P24941); experiment: CDK2/CycE kinase assay (TR-FRET); type: biochemical; conditions: avg, read-out: CDK2 avg (IC50 [mol/l])
T1 construct: GST; purchased ProQinase GmbH (Freiburg, Germany); host or cells: insect cells (Sf9)
Summary of the method: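 GST-tagged human CDK2 and CycE from Sf9 cells, preincubated 15 min with compound, then 25 min at 22° C. with 10 μM ATP and 0.75 μM biotinylated Rb-derived peptide (final). Phospho-substrate read by TR-FRET (anti-pRB pSer807/pSer811, Eu anti-mouse IgG, streptavidin-XL665), 665/620 nm ratio, normalised to no-inhibitor and no-enzyme controls.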

HeLa = experiment: Proliferation assay (crystal violet), HeLa; type: cell-based; conditions: Homo sapiens, HeLa, 96 h, HeLa cells; 4 days incubation; crystal violet staining; read-out: IC50 inhibition of proliferation, HeLa
Summary of the method: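 Seed 1000–5000 cells/well, 10% FCS; 24 h later replace medium and add compound (0.001–10 μM, 0.5% DMSO); incubate 4 d; glutaraldehyde fix, 0.1% crystal violet pH 3.0, elute with 10% acetic acid; A595; 4-parameter IC50.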

Structure (SMILES) | IC50 (CDK2/CycE) | IC50 (HeLa)
Cc1nsc(Nc2cncc(C(F)(F)F)n2)c1C(=O)Nc1ccc(OC2CCNCC2)nc1 [Example 13, 3-Methyl-N-[6-(piperidin-4-yloxy)pyridin-3-yl]-5-{[6-(trifluoromethyl)pyrazin-2-yl]-amino}-1,2-thiazole-4-carboxamide] | ≥ 20 µM | 10 µM
Cc1nsc(Nc2cncc(C(F)(F)F)n2)c1C(=O)Nc1ccc(OC2CCN(CCF)CC2)nc1 [Example 14, N-(6-{[1-(2-Fluoroethyl)piperidin-4-yl]oxy}pyridin-3-yl)-3-methyl-5-{[6-(trifluoro-methyl)pyrazin-2-yl]amino}-1,2-thiazole-4-carboxamide] | 13 µM | 1.5 µM
Cc1nsc(Nc2cncc(C(F)(F)F)n2)c1C(=O)Nc1ccc(OC2CCN(CC(F)(F)F)CC2)nc1 [Example 16, 3-Methyl-N-(6-{[1-(2,2,2-trifluoroethyl)piperidin-4-yl]oxy}pyridin-3-yl)-5-{[6-(trifluoromethyl)pyrazin-2-yl]amino}-1,2-thiazole-4-carboxamide] | ≥ 20 µM | 0.69 µM
CC(=O)N1CCC(Oc2ccc(NC(=O)c3c(C)nsc3Nc3cncc(C(F)(F)F)n3)cn2)CC1 [Example 17, N-{6-[(1-Acetylpiperidin-4-yl)oxy]pyridin-3-yl}-3-methyl-5-{[6-(trifluoromethyl)-pyrazin-2-yl]amino}-1,2-thiazole-4-carboxamide] | ≥ 20 µM | 2.4 µM
Cc1nsc(Nc2cnc3ccccc3n2)c1C(=O)Nc1ccc(OC2CCN(C(=O)OC(C)(C)C)CC2)nc1 [Example 18, tert-Butyl 4-{[5-({[3-methyl-5-(quinoxalin-2-ylamino)-1,2-thiazol-4-yl]carbonyl}-amino)pyridin-2-yl]oxy}piperidine-1-carboxylate] | ≥ 20 µM | 1.2 µM
Cc1nsc(Nc2cnc3ccccc3n2)c1C(=O)Nc1ccc(OC2CCNCC2)nc1 [Example 19, 3-Methyl-N-[6-(piperidin-4-yloxy)pyridin-3-yl]-5-(quinoxalin-2-ylamino)-1,2-thiazole-4-carboxamide] | ≥ 20 µM | 3.5 µM
Cc1nsc(Nc2cnc3ccccc3n2)c1C(=O)Nc1ccc(OC2CCN(CC(F)F)CC2)nc1 [Example 20, N-(6-{[1-(2,2-difluoroethyl)piperidin-4-yl]oxy}pyridin-3-yl)-3-methyl-5-(quinoxalin-2-ylamino)-1,2-thiazole-4-carboxamide] | ≥ 20 µM | 1.5 µM
CCN(CC)CCNC(=O)c1cccc(NC(=O)c2c(C)nsc2Nc2cc(C#N)ccn2)c1 [Example 174, 5-[(4-cyanopyridin-2-yl)amino]-N-(3-{[2-(diethylamino)ethyl]carbamoyl}phenyl)-3-methyl-1,2-thiazole-4-carboxamide] | > 20 µM | > 10 µM
Cc1nsc(Nc2cc(C#N)ccn2)c1C(=O)Nc1cccc(C(=O)NC2CC2)c1 [Example 175, 5-[(4-cyanopyridin-2-yl)amino]-N-[3-(cyclopropylcarbamoyl)phenyl]-3-methyl-1,2-thiazole-4-carboxamide] | > 20 µM | > 10 µM
COC(=O)CCc1cccc(NC(=O)c2c(C)nsc2Nc2ccc(C#N)cn2)c1 [Example 176, methyl 3-{3-[({5-[(5-cyanopyridin-2-yl)amino]-3-methyl-1,2-thiazol-4-yl}carbonyl)amino]phenyl}propanoate] | > 20 µM | 5 µM
Cc1nsc(Nc2cc(C#N)ccn2)c1C(=O)Nc1ccc(NC(=O)OC(C)(C)C)cc1 [Example 177, tert-butyl {4-[({5-[(4-cyanopyridin-2-yl)amino]-3-methyl-1,2-thiazol-4-yl}carbonyl)amino]phenyl}carbamate] | > 20 µM | > 10 µM
Cc1nsc(Nc2cnc3ccccc3n2)c1C(=O)Nc1cccc(NC(=O)OC(C)(C)C)c1 [Example 178, tert-butyl [3-({[3-methyl-5-(quinoxalin-2-ylamino)-1,2-thiazol-4-yl]carbonyl}amino)-phenyl]carbamate] | > 20 µM | 3.3 µM
Cc1nsc(Nc2ccc(C#N)cn2)c1C(=O)Nc1cccc(NC(=O)OC(C)(C)C)c1 [Example 179, tert-butyl {3-[({5-[(5-cyanopyridin-2-yl)amino]-3-methyl-1,2-thiazol-4-yl}carbonyl)amino]phenyl}carbamate] | > 20 µM | 3.8 µM
Cc1nsc(Nc2ccc(C#N)cn2)c1C(=O)Nc1cccc(N)c1 [Example 180, N-(3-aminophenyl)-5-[(5-cyanopyridin-2-yl)amino]-3-methyl-1,2-thiazole-4-carboxamide] | > 20 µM | > 10 µM
Cc1nsc(Nc2cnc3ccccc3n2)c1C(=O)Nc1ccc(C(=O)OC(C)(C)C)cc1 [Example 181, tert-butyl 4-({[3-methyl-5-(quinoxalin-2-ylamino)-1,2-thiazol-4-yl]carbonyl}amino)benzoate] | > 20 µM | 0.98 µM
Cc1nsc(Nc2cc(C#N)ccn2)c1C(=O)Nc1ccc(C(=O)OC(C)(C)C)cc1 [Example 182, tert-butyl 4-[({5-[(4-cyanopyridin-2-yl)amino]-3-methyl-1,2-thiazol-4-yl}carbonyl)amino]benzoate] | > 20 µM | 0.66 µM
Cc1nsc(Nc2cc(C#N)ccn2)c1C(=O)Nc1cccc(NC(=O)C(C)(C)C)c1 [Example 183, 5-[(4-cyanopyridin-2-yl)amino]-N-{3-[(2,2-dimethylpropanoyl)amino]phenyl}-3-methyl-1,2-thiazole-4-carboxamide] | > 20 µM | 5 µM
Cc1nsc(Nc2cnccn2)c1C(=O)Nc1ccc(C(=O)OC(C)(C)C)cc1 [Example 184, tert-butyl 4-({[3-methyl-5-(pyrazin-2-ylamino)-1,2-thiazol-4-yl]carbonyl}amino)benzoate] | > 20 µM | 3.8 µM
Cc1nsc(Nc2cnc3ccccc3n2)c1C(=O)Nc1ccc(NC(=O)C(C)(C)C)cc1 [Example 185, N-{4-[(2,2-dimethylpropanoyl)amino]phenyl}-3-methyl-5-(quinoxalin-2-ylamino)-1,2-thiazole-4-carboxamide] | > 20 µM | > 10 µM
Cc1nsc(Nc2cnc3ccccc3n2)c1C(=O)Nc1cccc(NC(=O)C(C)(C)C)c1 [Example 186, N-{3-[(2,2-dimethylpropanoyl)amino]phenyl}-3-methyl-5-(quinoxalin-2-ylamino)-1,2-thiazole-4-carboxamide] | > 20 µM | 6.5 µM
Cc1nsc(Nc2cnc3ccccc3n2)c1C(=O)Nc1ccc(C(=O)O)cc1 [Example 187, 4-({[3-methyl-5-(quinoxalin-2-ylamino)-1,2-thiazol-4-yl]carbonyl}amino)benzoic acid] | > 20 µM | > 10 µM
Cc1nsc(Nc2cnc3ccccc3n2)c1C(=O)Nc1ccccc1S(C)(=O)=O [Example 188, 3-methyl-N-[2-(methylsulfonyl)phenyl]-5-(quinoxalin-2-ylamino)-1,2-thiazole-4-carboxamide] | > 20 µM | > 10 µM
Cc1nsc(Nc2cncc(C(F)(F)F)n2)c1C(=O)Nc1ccc(OC2CCCN(C(=O)OC(C)(C)C)C2)nc1 (stereo not drawn) [Example 189, tert-butyl 3-[(5-{[(3-methyl-5-{[6-(trifluoromethyl)pyrazin-2-yl]amino}-1,2-thiazol-4-yl)carbonyl]amino}pyridin-2-yl)oxy]piperidine-1-carboxylate] | > 20 µM | 0.94 µM
Cc1nsc(Nc2cncc(C(F)(F)F)n2)c1C(=O)Nc1ccc(OCCCNC(=O)OC(C)(C)C)nc1 [Example 190, tert-butyl {3-[(5-{[(3-methyl-5-{[6-(trifluoromethyl)pyrazin-2-yl]amino}-1,2-thiazoL-4-yl)carbonyl]amino}pyridin-2-yl)oxy]propyl}carbamate] | > 20 µM | 0.42 µM
Cc1nsc(Nc2cncc(C(F)(F)F)n2)c1C(=O)Nc1ccc(OCCNC(=O)OC(C)(C)C)nc1 [Example 191, tert-butyl {2-[(5-{[(3-methyl-5-{[6-(trifluoromethyl)pyrazin-2-yl]amino}-1,2-thiazol-4-yl)carbonyl]amino}pyridin-2-yl)oxy]ethyl}carbamate] | 18 µM | 1.6 µM
Cc1nsc(Nc2cnc(C(F)(F)F)cn2)c1C(=O)Nc1ccc(OCCNC(=O)OC(C)(C)C)nc1 [Example 192, tert-butyl {2-[(5-{[(3-methyl-5-{[5-(trifluoromethyl)pyrazin-2-yl]amino}-1,2-thiazol-4-yl)carbonyl]amino}pyridin-2-yl)oxy]ethyl}carbamate] | > 20 µM | 1.2 µM
Cc1nsc(Nc2cncc(C(F)(F)F)n2)c1C(=O)Nc1ccc(C(=O)OC(C)(C)C)cc1 [Example 193, tert-butyl tert-butyl 4-{[(3-methyl-5-{[6-(trifluoromethyl)pyrazin-2-yl]amino}-1,2-thiazol-4-yl)carbonyl]amino}benzoate] | 12 µM | 2.7 µM
Cc1nsc(Nc2cncc(C(F)(F)F)n2)c1C(=O)Nc1cccc(S(C)(=O)=O)c1 [Example 194, 3-methyl-N-[3-(methylsulfonyl)phenyl]-5-{[6-(trifluoromethyl)pyrazin-2-yl]amino}-1,2-thiazole-4-carboxamide] | > 20 µM and 7.8 µM | 2.5 µM
Cc1nsc(Nc2cncc(C(F)(F)F)n2)c1C(=O)Nc1ccc(C(=O)NCCN2CCCC(F)(F)C2)cc1 [Example 214, N-(4-{[2-(3,3-difluoropiperidin-1-yl)ethyl]carbamoyl}phenyl)-3-methyl-5-{[6-(trifluoromethyl)pyrazin-2-yl]amino}-1,2-thiazole-4-carboxamide] | – | 4.6 µM
